Here are results for five compounds from patent US9758495B2, “Heteroaryl acid morpholinone compounds as MDM2 inhibitors for the treatment of cancer” (AMGEN INC., priority 2013, dated 2017).

The structures appear in SMILES notation.

Broadly, the IC50 is the concentration that inhibits the measured activity by half. Low readings indicate higher potency, high ones lower potency.

The target of this test is GST-hMDM2 (aa 1-188) / biotinylated-p53 (aa 1-83) (Homo sapiens (Human), UniProt Q00987). Description: Homogenous Time-Resolved Fluorescence Assay (HTRF2 assay), inhibition of HDM2-p53 interaction. The format is binding. The following applies: 0.2 nM GST-hMDM2 (1-188), 0.5 nM biotinylated-p53 (1-83), 0.18 nM SA-XLent, 100 mM KF. As to the method: Residues 1-83 of human p53 were expressed as an amino-terminal AviTag™-TrxA-6×His fusion protein (biotinylated p53) in E. coli. Each protein was purified from cell paste by affinity chromatography.
Sequence of GST-hMDM2 (aa 1-188) / biotinylated-p53 (aa 1-83) (Q00987 1-188): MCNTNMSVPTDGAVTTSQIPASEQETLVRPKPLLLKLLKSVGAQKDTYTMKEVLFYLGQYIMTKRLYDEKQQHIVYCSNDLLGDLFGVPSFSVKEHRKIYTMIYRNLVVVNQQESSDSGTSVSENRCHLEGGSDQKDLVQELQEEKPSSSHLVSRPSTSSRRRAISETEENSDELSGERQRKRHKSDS
Specifically, 10 uL of GST-hMDM2 was incubated with 10 ul of diluted compound (various concentrations, serially diluted) in 10% DMSO for 20 minutes at room temperature. 20 uL of biotinylated-p53 was added to the GST-hMDM2+compound mixture, and then incubated at room temperature for 60 min. 10 uL of detection buffer consisting of SA-XLent, anti-GST cryptate antibody and KF was added to GST-hMDM2, biotinylated-p53 and compound reaction and left at room temperature to reach equilibrium for >4 hrs. The final concentration of DMSO in the reaction was 2%. Time-resolved fluorescence readings were measured on a microplate multilabel reader. Percentage of inhibition was calculated relative to nutlin-3.
Compound `CC(C)(C)S(=O)(=O)C[C@H](C1CC1)N1C(=O)[C@](C)(Cc2ccc(C(=O)O)c[n+]2[O-])O[C@H](c2cccc(Cl)c2)[C@H]1c1ccc(Cl)cc1` (single isomer, unassigned) [Example 3, 2-(((2S,5R,6R)-4-((S)-2-(tert-Butylsulfonyl)-1-cyclopropylethyl)-6-(3-chlorophenyl)-5-(4-chlorophenyl)-2-methyl-3-oxomorpholin-2-yl)methyl)-5-carboxypyridine 1-oxide or 2-(((2R,5R,6R)-4-((S)-2-(tert-Butylsulfonyl)-1-cyclopropylethyl)-6-(3-chlorophenyl)-5-(4-chlorophenyl)-2-methyl-3-oxomorpholin-2-yl)methyl)-5-carboxypyridine 1-oxide] registered an IC50 of 230 pM.
Under `CC(C)(C)S(=O)(=O)C[C@H](C1CC1)N1C(=O)[C@@](C)(Cc2ccc(C(=O)O)cn2)O[C@H](c2cccc(Cl)c2)[C@H]1c1ccc(Cl)c(F)c1` (single isomer, unassigned) [Example 6, 6-(((2R,5R,6R)-4-((S)-2-(tert-Butylsulfonyl)-1-cyclopropylethyl)-5-(4-chloro-3-fluorophenyl)-6-(3-chlorophenyl)-2-methyl-3-oxomorpholin-2-yl)methyl)nicotinic acid or 6-(((2S,5R,6R)-4-((S)-2-(tert-butylsulfonyl)-1-cyclopropylethyl)-5-(4-chloro-3-fluorophenyl)-6-(3-chlorophenyl)-2-methyl-3-oxomorpholin-2-yl)methyl)nicotinic acid] stands 110 pM; under `CC(C)(C)S(=O)(=O)C[C@H](C1CC1)N1C(=O)[C@@](C)(Cc2ncc(C(=O)O)s2)O[C@H](c2cccc(Cl)c2)[C@H]1c1ccc(Cl)c(F)c1` (single isomer, unassigned) [Example 5, 2-(((2R,5R,6R)-4-((S)-2-(tert-Butylsulfonyl)-1-cyclopropylethyl)-5-(4-chloro-3-fluorophenyl)-6-(3-chlorophenyl)-2-methyl-3-oxomorpholin-2-yl)methyl)thiazole-5-carboxylic acid or 2-(((2S,5R,6R)-4-((S)-2-(tert-butylsulfonyl)-1-cyclopropylethyl)-5-(4-chloro-3-fluorophenyl)-6-(3-chlorophenyl)-2-methyl-3-oxomorpholin-2-yl)methyl)thiazole-5-carboxylic acid], 121 pM.
Compound `CC(C)(C)S(=O)(=O)C[C@H](C1CC1)N1C(=O)[C@@](C)(Cc2ccc(C(=O)O)cn2)O[C@H](c2cccc(Cl)c2)[C@H]1c1ccc(Cl)c(F)c1` (single isomer, unassigned) [Example 7, 6-(((2R,5R,6R)-4-((S)-2-(tert-butylsulfonyl)-1-cyclopropylethyl)-5-(4-chloro-3-fluorophenyl)-6-(3-chlorophenyl)-2-methyl-3-oxomorpholin-2-yl)methyl)nicotinic acid or 6-(((2S,5R,6R)-4-((S)-2-(tert-butylsulfonyl)-1-cyclopropylethyl)-5-(4-chloro-3-fluorophenyl)-6-(3-chlorophenyl)-2-methyl-3-oxomorpholin-2-yl)methyl)nicotinic acid] returned a half-inhibitory concentration (IC50) below 100 pM.
For the compound `CC(C)(C)S(=O)(=O)C[C@H](C1CC1)N1C(=O)[C@@](C)(Cc2ccc(C(=O)O)c[n+]2[O-])O[C@H](c2cccc(Cl)c2)[C@H]1c1ccc(Cl)cc1` (single isomer, unassigned) [Example 4, 2-(((2R,5R,6R)-4-((S)-2-(tert-butylsulfonyl)-1-cyclopropylethyl)-6-(3-chlorophenyl)-5-(4-chlorophenyl)-2-methyl-3-oxomorpholin-2-yl)methyl)-5-carboxypyridine 1-oxide or 2-(((2S,5R,6R)-4-((S)-2-(tert-butylsulfonyl)-1-cyclopropylethyl)-6-(3-chlorophenyl)-5-(4-chlorophenyl)-2-methyl-3-oxomorpholin-2-yl)methyl)-5-carboxypyridine 1-oxide], half-maximal inhibition (IC50) required 1850 pM.
